Assay results published in patent publication US9957271B2, “Substituted bicyclic aza-heterocycles and analogues as sirtuin modulators” (GlaxoSmithKline, LLC, priority 2012, dated 2018).

Biological target: T1, SIRT1 (Homo sapiens, UniProt Q96EB6)
T1 sequence (Q96EB6 1-747): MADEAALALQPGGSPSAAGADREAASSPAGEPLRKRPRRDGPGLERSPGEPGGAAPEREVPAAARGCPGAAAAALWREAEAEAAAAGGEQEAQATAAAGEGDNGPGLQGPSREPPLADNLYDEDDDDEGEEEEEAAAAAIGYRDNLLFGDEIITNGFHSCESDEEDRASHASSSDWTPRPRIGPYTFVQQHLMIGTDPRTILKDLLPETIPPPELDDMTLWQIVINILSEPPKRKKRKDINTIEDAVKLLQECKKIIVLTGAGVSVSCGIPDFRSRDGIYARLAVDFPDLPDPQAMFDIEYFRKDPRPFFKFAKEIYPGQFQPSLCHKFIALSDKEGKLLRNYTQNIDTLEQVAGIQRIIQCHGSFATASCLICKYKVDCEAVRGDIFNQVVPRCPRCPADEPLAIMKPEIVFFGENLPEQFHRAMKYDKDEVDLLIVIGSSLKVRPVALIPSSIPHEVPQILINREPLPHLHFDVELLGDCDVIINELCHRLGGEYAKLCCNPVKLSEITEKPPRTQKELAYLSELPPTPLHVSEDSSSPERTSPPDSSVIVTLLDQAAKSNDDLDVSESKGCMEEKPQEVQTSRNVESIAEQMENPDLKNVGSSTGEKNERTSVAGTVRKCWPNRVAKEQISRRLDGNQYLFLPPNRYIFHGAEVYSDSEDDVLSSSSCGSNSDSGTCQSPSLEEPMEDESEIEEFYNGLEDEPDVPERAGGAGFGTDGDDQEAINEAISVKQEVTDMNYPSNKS
Experiment: TAMRA based mass spectrometry assay of SIRT1 activity
Assay type: biochemical
Details: TAMRA peptide substrate; for TAMRA EC1.5: concentration giving 150% activation of SIRT1; for Emax: percent maximum fold activation, read-out: TAMRA % Fold Act
Outline: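 Deacetylation of a biotinylated, TAMRA-tagged p53-based peptide (0.5 μM) by 10 nM His-tagged SIRT1 with 120 μM βNAD+, 25 °C for 25 min, pH 8 Tris-acetate buffer, across a compound concentration range. Quenched by formic acid and read by mass spec as product peptide or OAADPR; activity relative to DMSO reactions, nicotinamide defining maximal inhibition.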

Compound | TAMRA EC1.5 | Emax
O=C(Nc1cccc(OC(CO)CO)n1)c1cnc2ccc(-c3ccccc3C(F)(F)F)nn12 [Compound 423, N-(6-((1,3-dihydroxypropan-2-yl)oxy)pyridin-2-yl)-6-(2-(trifluoromethyl)phenyl)imidazo[1,2-b]pyridazine-3-carboxamide] | A (EC1.5<1 μM) | ≥ 350%
Cc1cc(-c2ccccc2C(F)(F)F)nn2c(NC(=O)c3cccc(N4CCC4)n3)cnc12 [Compound 426] | A (EC1.5<1 μM) | ≥ 350%
Cc1cc(C)nc(NC(=O)c2c(C)nc3c(C)cc(-c4ccccc4C(F)(F)F)nn23)c1 [Compound 429] | A (EC1.5<1 μM) | ≥ 350%
Cc1cc(NC(=O)c2c(C)nc3c(C)cc(-c4ccccc4C(F)(F)F)nn23)cc(C)n1 [Compound 432] | A (EC1.5<1 μM) | ≥ 350%
Cc1cc2ncc(NC(=O)c3cscn3)n2nc1-c1ccccc1C(F)(F)F [Compound 434] | A (EC1.5<1 μM) | ≥ 350%
Cc1cc2ncc(NC(=O)c3cccc(N4CCOCC4)n3)n2nc1-c1ccccc1C(F)(F)F [Compound 435] | A (EC1.5<1 μM) | ≥ 350%
O=C(Nc1cnc2ccc(-c3ccccc3C(F)(F)F)nn12)c1cccc(-n2cnnc2)n1 [Compound 438] | A (EC1.5<1 μM) | ≥ 350%
O=C(Nc1cnc2ccc(-c3ccccc3C(F)(F)F)nn12)c1ncc(F)cc1F [Compound 440] | A (EC1.5<1 μM) | ≥ 350%
Cc1cc2ncc(NC(=O)c3ccccn3)n2nc1-c1ccccc1C(F)(F)F [Compound 441, N-(7-methyl-6-(2-(trifluoromethyl)phenyl)imidazo[1,2-b]pyridazin-3-yl)picolinamide] | A (EC1.5<1 μM) | ≥ 350%
Cc1cc2ncc(NC(=O)c3ncccn3)n2nc1-c1ccccc1C(F)(F)F [Compound 444] | A (EC1.5<1 μM) | ≥ 350%
Cc1cc2ncc(NC(=O)c3nccs3)n2nc1-c1ccccc1C(F)(F)F [Compound 446] | A (EC1.5<1 μM) | ≥ 350%
Cc1cnc(C(=O)Nc2cnc3cc(C)c(-c4ccccc4C(F)(F)F)nn23)s1 [Compound 447] | A (EC1.5<1 μM) | ≥ 350%
O=C(Nc1ccccn1)c1ncn2ccc(-c3ccccc3C(F)(F)F)nc12 [Compound 450] | B (EC1.5 1-25 μM) | ≥ 350%
O=C(Nc1ccncn1)c1ncn2ccc(-c3ccccc3C(F)(F)F)nc12 [Compound 452] | A (EC1.5<1 μM) | ≥ 350%
O=C(Nc1ncccn1)c1ncn2ccc(-c3ccccc3C(F)(F)F)nc12 [Compound 453] | B (EC1.5 1-25 μM) | ≥ 350%
O=C(Nc1ncn2ccc(-c3ccccc3C(F)(F)F)nc12)c1cccc(N2CCOCC2)n1 [Compound 456] | A (EC1.5<1 μM) | ≥ 350%
Cc1cccc(NC(=O)c2c(C)nc3c(C)cc(-c4ccccc4C(F)(F)F)nn23)n1 [Compound 458] | A (EC1.5<1 μM) | ≥ 350%
Cc1cc(NC(=O)c2c(C)nc3c(C)cc(-c4ccccc4C(F)(F)F)nn23)ccn1 [Compound 459] | A (EC1.5<1 μM) | ≥ 350%
Cc1nc2ccc(-c3ccccc3C(F)(F)F)nn2c1C(=O)Nc1cccnn1 [Compound 462, 2-methyl-N-(pyridazin-3-yl)-6-(2-(trifluoromethyl)phenyl)imidazo[1,2-b]pyridazine-3-carboxamide] | A (EC1.5<1 μM) | ≥ 350%
Cc1nc2ccc(-c3ccccc3C(F)(F)F)nn2c1C(=O)Nc1ccncc1F [Compound 464] | A (EC1.5<1 μM) | ≥ 350%
Cc1nc2ccc(-c3ccccc3C(F)(F)F)nn2c1C(=O)Nc1ccc(F)cn1 [Compound 465] | A (EC1.5<1 μM) | ≥ 350%
Cc1nc2c(C)cc(-c3ccccc3C(F)(F)F)nn2c1C(=O)Nc1cncc(OC[C@H](O)CO)n1 [Compound 468] | A (EC1.5<1 μM) | ≥ 350%
Cc1nc2ccc(-c3ccccc3OC(F)(F)F)nn2c1C(=O)Nc1cccnn1 [Compound 470] | A (EC1.5<1 μM) | ≥ 350%
Cc1nc2ccc(-c3ccccc3OC(F)(F)F)nn2c1C(=O)Nc1cnccn1 [Compound 471] | A (EC1.5<1 μM) | ≥ 350%
Cc1nc2c(C)cc(-c3ccccc3C(F)(F)F)nn2c1C(=O)Nc1ccc(F)cn1 [Compound 474] | A (EC1.5<1 μM) | ≥ 350%
COc1nccc(NC(=O)c2c(C)nc3ccc(-c4ccccc4C(F)(F)F)nn23)n1 [Compound 476] | A (EC1.5<1 μM) | ≥ 350%
COc1nccc(NC(=O)c2c(C)nc3ccc(-c4ccccc4OC(F)(F)F)nn23)n1 [Compound 477] | A (EC1.5<1 μM) | ≥ 350%

Next, values leading:

TAMRA EC1.5 | Emax | Compound
A (EC1.5<1 μM) | ≥ 350% | Cc1nc2c(C)cc(-c3ccccc3OC(F)(F)F)nn2c1C(=O)Nc1cccnn1 [Compound 479]
A (EC1.5<1 μM) | ≥ 350% | Cc1nc(NC(=O)c2c(C)nc3c(C)cc(-c4ccccc4OC(F)(F)F)nn23)sc1C [Compound 482]
B (EC1.5 1-25 μM) | ≥ 350% | O=C(Nc1cccc(N2CCOCC2)n1)c1cnc2ccc(N3CC[C@@H](F)C3)nn12 [Compound 488]
B (EC1.5 1-25 μM) | < 350% | Cc1cc(C)nc(NC(=O)c2cnc3ccc(N4CC[C@@H](F)C4)nn23)c1 [Compound 491]
B (EC1.5 1-25 μM) | < 350% | Cc1cc(C)nc(NC(=O)c2cnc3ccc(N4CCC(F)(F)C4)nn23)c1 [Compound 492]
A (EC1.5<1 μM) | ≥ 350% | Cc1cc(C)nc(NC(=O)c2c(C)nc3c(C)cc(-c4ccccc4OC(F)(F)F)nn23)c1 [Compound 493]
A (EC1.5<1 μM) | ≥ 350% | Cc1nc2c(C)cc(-c3ccccc3OC(F)(F)F)nn2c1C(=O)Nc1ccncc1F [Compound 494]
A (EC1.5<1 μM) | < 350% | Cc1nc2c(C)cc(-c3ccccc3OC(F)(F)F)nn2c1C(=O)Nc1ccc(F)cn1 [Compound 495]
A (EC1.5<1 μM) | ≥ 350% | Cc1nc2ccc(-c3ccccc3OC(F)(F)F)nn2c1C(=O)Nc1ccncc1 [Compound 497]
A (EC1.5<1 μM) | ≥ 350% | Cc1nc2ccc(-c3ccccc3C(F)(F)F)nn2c1C(=O)Nc1ccccn1 [Compound 498]
A (EC1.5<1 μM) | ≥ 350% | Cc1cccc(NC(=O)c2cnn3ccc(-c4ccccc4C(F)(F)F)nc23)n1 [Compound 500]
A (EC1.5<1 μM) | ≥ 350% | Cc1ccnc(NC(=O)c2cnn3ccc(-c4ccccc4C(F)(F)F)nc23)c1 [Compound 501]
A (EC1.5<1 μM) | ≥ 350% | Cc1cc(C)nc(NC(=O)c2cnn3ccc(-c4ccccc4C(F)(F)F)nc23)c1 [Compound 502]
A (EC1.5<1 μM) | ≥ 350% | Cc1cc(NC(=O)c2cnn3ccc(-c4ccccc4C(F)(F)F)nc23)nc(C)n1 [Compound 503]
A (EC1.5<1 μM) | ≥ 350% | Cc1cc(NC(=O)c2cnn3ccc(-c4ccccc4C(F)(F)F)nc23)cc(C)n1 [Compound 504]
A (EC1.5<1 μM) | ≥ 350% | O=C(Nc1nccs1)c1cnn2ccc(-c3ccccc3C(F)(F)F)nc12 [Compound 506]
A (EC1.5<1 μM) | ≥ 350% | Cc1nc(NC(=O)c2cnn3ccc(-c4ccccc4C(F)(F)F)nc23)sc1C [Compound 509]
B (EC1.5 1-25 μM) | < 350% | CN(C)[C@H]1CCN(c2ccc3ncc(C(=O)Nc4cccc(N5CCOCC5)n4)n3n2)C1 [Compound 510]
B (EC1.5 1-25 μM) | < 350% | Cc1cc(C)nc(NC(=O)c2cnc3ccc(N4CC[C@H](N(C)C)C4)nn23)c1 [Compound 512]
A (EC1.5<1 μM) | ≥ 350% | Cc1cc(-c2ccccc2C(F)(F)F)nn2c(C(=O)Nc3ccncn3)cnc12 [Compound 515]
A (EC1.5<1 μM) | ≥ 350% | COc1nccc(NC(=O)c2cnn3ccc(-c4ccccc4C(F)(F)F)nc23)n1 [Compound 519]
B (EC1.5 1-25 μM) | < 350% | O=C(Nc1cnn2ccc(-c3ccccc3C(F)(F)F)nc12)c1cccc(O)n1 [Compound 520]
A (EC1.5<1 μM) | ≥ 350% | Cc1cccc(C(=O)Nc2cnn3ccc(-c4ccccc4C(F)(F)F)nc23)n1 [Compound 522]
A (EC1.5<1 μM) | ≥ 350% | Cc1cnc(C(=O)Nc2cnn3ccc(-c4ccccc4C(F)(F)F)nc23)s1 [Compound 525]
